In patent US20160015893A1, “DIRECT PRESSURE-MEDIATED INTRA-BONE DELIVERY SYSTEM FOR CELLULAR THERAPEUTICS” (The United States of America, as represented by the …, priority 2013, published 2016):

Key:
[1] = CT imaging of IB contrast injection (marrow flow, venous drainage, leakage); format: in vivo, domestic swine (Sus scrofa domesticus)
Experimental: To evaluate flow through the bone marrow cavity, abdominal vessels were identified using iopamidol-370 contrast injected into the distal abdominal aorta via a 5Fr Glidecath (Terumo Medical Corporation, Somerset, N.J.) inserted in the internal carotid artery. To evaluate the anatomy of the veins, iopamidol-370 contrast was injected IB under anesthesia (boluses of 5 or 10 ml at rates of 0.1 to 2.5 ml/s) while scanning with 320-row detector CT (Aquilion ONE™, Toshiba Medical, Japan). Pulmonary artery, carotid artery and intra-marrow pressures were monitored and recorded continuously both during and after injection of contrast media. In select animals, vascular occluders (In Vivo Metric, Healdsburg, Calif.) were placed around the terminal branches of the abdominal aorta to selectively control flow through the internal or external iliac arteries, and around the iliac veins to control venous drainage from the pelvis. […]
To evaluate flow through the marrow and venous drainage, direct intra-bone injection into the hemipelvis with iopamidol-370 contrast was performed under anesthesia with dynamic CT images acquired using a 320-detector row scanner (Aquilion One, Toshiba Medical, Japan). Human CD34+ and swine BM MNCs were labeled with Zirconium-89 (^89Zr), and were then assessed for viability, cell number, and the level of cellular radioactivity.

[2] = PET/CT in vivo distribution of radioactivity after IV, IB or intra-arterial administration in swine; set-up: species or system domestic swine (Sus scrofa domesticus)
Experimental: Animals were heparinzed to an ACT of 300 seconds or greater and were started with deferoxamine IV infusion (5 mg/kg/hr) to chelate any free ^89Zr that may potentially be released from fragmented cells. PET scans were performed using a Gemini TF clinical PET/CT scanner (Philips Medical Systems, Andover, Mass.). Following injection, animals were imaged in 3-dimensional (3D) time-of-flight mode with a spatial resolution of 4.8 mm at the center of the field of view. The images were reconstructed using the default row-action maximum-likelihood algorithm iterative reconstruction, with standard corrections for random, scatter, attenuation, and normalization. Three volumes of interest (VOI) were manually drawn within the swine PET/CT scans. One VOI enclosing the intra-pelvic bone volume near the injection site, another VOI enclosing the extra-pelvic bone volume and the last VOI for the lung volume. The sum of measured activities of the three volumes equals the total injected radioactivity into the swine. Thus, the percent-injected dose (% ID) within each VOI was estimated by dividing each VOI by the sum of the three VOIs and multiplying by 100. The percent-injected dose for each of the three regions is reported herein.

[3] = Control group, IB injection without cells, pig 32590, after the first hour

Row | Compound | Contrast distribution on CT ([1]; IB injection at rates exceeding 0.2 ml/s, volumes >10 ml, or by hand) | Contrast distribution on dynamic CT ([1]; manual sequential hand intra-bone injection of 5 ml aliquots at two sites in the ipsilateral iliac crest) | Extra-pelvic bone VOI (Max) [2, 3] | Extra-pelvic bone VOI (Mean) [2, 3] | Intra-pelvic bone % ID [2, 3] | Intra-pelvic bone VOI (Max) [2, 3] | Intra-pelvic bone VOI (Mean) [2, 3] | Intra-pelvic bone total radioactivity [2, 3] | Lung % ID [2, 3] | Lung VOI (Mean) [2, 3] | Lung total radioactivity [2, 3] | Intra-pelvic bone % ID ([2]; Control group, IB injection without cells, pig 32590, after the first hour, listed as 89Zr—Df) | Location of radioactivity, fusion PET/CT ([2]; IB injection without cells, 1 hr) | Radioactivity within the renal collecting system, ureters and bladder ([2]; IB injection without cells, first hour) | Excretion of radioactivity ([2]; IV injection without cells) | Retention in the lungs ([2]; IV or IB administration without cells, first hour)
1 | C[C@H](O)C(=O)Nc1c(I)c(C(=O)NC(CO)CO)c(I)c(C(=O)NC(CO)CO)c1I [iopamidol-370 contrast, iopamidol-370] | extrabone contrast leakage at the site of injection | leakage from the initial access site after the first injection as well as immediate drainage into the ipsilateral iliac vein | – | – | – | – | – | – | – | – | – | – | – | – | – | –
2 | ^89Zr-deferoxamine [^89Zr-Df] | – | – | 91.45 | 15.32 | 33.5 % ID | 338.9 | 314.42 | 1085.85 counts | 0.0% ID | 0 | 0 counts | 33.5% ID | radioactivity in the renal pelvises and bladder | 66.5 % ID | rapid renal excretion | no retention
